Test results published in US20240132431A1, “METHOD FOR ALKYLATING ACIDIC FUNCTIONAL GROUP” (Chugai Seiyaku Kabushiki Kaisha, priority 2021, published 2024).

Target: T1, Bcl-2 protein (Recombinant Human Bcl-2 Protein) (Homo sapiens, UniProt P10415)
T1 construct: purchased Novus NBP2-34889
Assay: Binding evaluation of mixture library compounds to Bcl-2 using AS-MS (affinity selection mass spectrometry)
Conditions: AS-MS, mixture of 1200 compounds, Bcl-2, ASMS Ratio(%)=(A−C)/B×100; for ASMS ratio (%) n = 1: replicate n = 1; for ASMS ratio (%) n = 2: replicate n = 2
Summary of the method: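 Pooled library of ~1200 compounds ([…] each, final) incubated with recombinant human Bcl-2 (20 μM final) in Tris-HCl pH 7.4, NaCl, Tween-20, DTT buffer, dark, 23° C., 1 h. Bound fraction recovered by SEC spin column, organic extraction, reversed-phase LC/MS. ASMS Ratio (%) = (A−C)/B×100 versus protein-free standard and SEC blank.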

T1 sequence (P10415 whole entry): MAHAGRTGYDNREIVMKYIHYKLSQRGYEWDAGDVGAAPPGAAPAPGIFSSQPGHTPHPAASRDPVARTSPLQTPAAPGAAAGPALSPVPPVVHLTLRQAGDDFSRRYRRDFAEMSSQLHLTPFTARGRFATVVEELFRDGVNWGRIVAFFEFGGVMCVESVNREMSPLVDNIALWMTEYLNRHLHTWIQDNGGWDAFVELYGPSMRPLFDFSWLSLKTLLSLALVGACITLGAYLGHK

Structure (SMILES)	ASMS ratio (%) n = 1	ASMS ratio (%) n = 2
CCOc1cccc(-c2cc(CN3CCN(c4ccc(C(=O)NCC56CC7CC(CC(C7)C5)C6)cc4)CC3)cc(OC(C)C)c2)c1 [B1A057-01, N-(1-Adamantylmethyl)-4-[4-[[3-(3-ethoxyphenyl)-5-propan-2-yloxyphenyl]methyl]piperazin-1-yl]benzamide]	0.0%	0.0%
CCOc1cccc(-c2cc(OC)c(CN3CCN(c4ccc(C(=O)NCC56CC7CC(CC(C7)C5)C6)cc4)CC3)c(OC)c2)c1 [B1A059-01, N-(1-Adamantylmethyl)-4-[4-[[4-(3-ethoxyphenyl)-2,6-dimethoxyphenyl]methyl]piperazin-1-yl]benzamide]	7.7%	−5.5%
CCOc1cccc(-c2cc(CN3CCN(c4ccc(C(=O)NCC56CC7CC(CC(C7)C5)C6)cc4)CC3)cc(OC(F)(F)F)c2)c1 [B1A063-01, N-(1-Adamantylmethyl)-4-[4-[[3-(3-ethoxyphenyl)-5-(trifluoromethoxy)phenyl]methyl]piperazin-1-yl]benzamide]	−1.0%	−11.0%
CCOc1cncc(-c2cc(CN3CCN(c4ccc(C(=O)NCC56CC7CC(CC(C7)C5)C6)cc4)CC3)cc(OC(F)(F)F)c2)c1 [B1A064-01, N-(1-Adamantylmethyl)-4-[4-[[3-(5-ethoxypyridin-3-yl)-5-(trifluoromethoxy)phenyl]methyl]piperazin-1-yl]benzamide]	5.2%	−1.6%
CCOc1cccc(-c2ccc(CN3CCN(c4ccc(C(=O)NCC56CC7CC(CC(C7)C5)C6)cc4)CC3)c3ccccc23)c1 [B1A065-01, N-(1-Adamantylmethyl)-4-[4-[[4-(3-ethoxyphenyl)naphthalen-1-yl]methyl]piperazin-1-yl]benzamide]	−32.6%	−10.4%
CCOc1cncc(-c2ccc(CN3CCN(c4ccc(C(=O)NCC56CC7CC(CC(C7)C5)C6)cc4)CC3)c3ccccc23)c1 [B1A066-01, N-(1-Adamantylmethyl)-4-[4-[[4-(5-ethoxypyridin-3-yl)naphthalen-1-yl]methyl]piperazin-1-yl]benzamide]	8.2%	7.7%
CCOc1cncc(-c2csc(CN3CCN(c4ccc(C(=O)NCC56CC7CC(CC(C7)C5)C6)cc4)CC3)c2)c1 [B1A068-01, N-(1-Adamantylmethyl)-4-[4-[[4-(5-ethoxypyridin-3-yl)thiophen-2-yl]methyl]piperazin-1-yl]benzamide]	12.2%	3.3%
CCOc1cccc(C#Cc2ccccc2CN2CCN(c3ccc(C(=O)NCC45CC6CC(CC(C6)C4)C5)cc3)CC2)c1 [B1A069-01, N-(1-Adamantylmethyl)-4-[4-[[2-[2-(3-ethoxyphenyl)ethynyl]phenyl]methyl]piperazin-1-yl]benzamide]	8.3%	0.8%
CCOc1cncc(C#Cc2ccccc2CN2CCN(c3ccc(C(=O)NCC45CC6CC(CC(C6)C4)C5)cc3)CC2)c1 [B1A070-01, N-(1-Adamantylmethyl)-4-[4-[[2-[2-(5-ethoxypyridin-3-yl)ethynyl]phenyl]methyl]piperazin-1-yl]benzamide]	0.0%	0.0%
CCOc1cncc(-c2ccccc2CN2CCN(c3ccc(C(=O)NCC45CC6CC(CC(C6)C4)C5)nn3)CC2)c1 [B1A072-01, N-(1-Adamantylmethyl)-6-[4-[[2-(5-ethoxypyridin-3-yl)phenyl]methyl]piperazin-1-yl]pyridazine-3-carboxamide]	3.9%	−0.2%
CCOc1cccc(-c2ccc(CN3CCN(c4ccc(C(=O)NCC56CC7CC(CC(C7)C5)C6)nn4)CC3)cc2C)c1 [B1A073-01, N-(1-Adamantylmethyl)-6-[4-[[4-(3-ethoxyphenyl)-3-methylphenyl]methyl]piperazin-1-yl]pyridazine-3-carboxamide]	3.2%	−4.7%
CCOc1cncc(-c2ccc(CN3CCN(c4ccc(C(=O)NCC56CC7CC(CC(C7)C5)C6)nn4)CC3)cc2C)c1 [B1A074-01, N-(1-Adamantylmethyl)-6-[4-[[4-(5-ethoxypyridin-3-yl)-3-methylphenyl]methyl]piperazin-1-yl]pyridazine-3-carboxamide]	3.2%	−0.1%
CCOc1cccc(-c2ccc(CN3CCN(c4ccc(C(=O)NCC56CC7CC(CC(C7)C5)C6)nn4)CC3)cc2F)c1 [B1A077-01, N-(1-Adamantylmethyl)-6-[4-[[4-(3-ethoxyphenyl)-3-fluorophenyl]methyl]piperazin-1-yl]pyridazine-3-carboxamide]	6.6%	−1.3%

Now from value to molecule:

ASMS ratio (%) n = 1	ASMS ratio (%) n = 2	Structure (SMILES)
9.7%	4.0%	CCOc1cncc(-c2cc(CN3CCN(c4ccc(C(=O)NCC56CC7CC(CC(C7)C5)C6)cc4)CC3)cc(OCC)c2)c1 [B1A056-01, N-(1-Adamantylmethyl)-4-[4-[[3-ethoxy-5-(5-ethoxypyridin-3-yl)phenyl]methyl]piperazin-1-yl]benzamide]
–	0.0%	CCOc1cncc(-c2cc(CN3CCN(c4ccc(C(=O)NCC56CC7CC(CC(C7)C5)C6)cc4)CC3)cc(OC(C)C)c2)c1 [B1A058-01, N-(1-Adamantylmethyl)-4-[4-[[3-(5-ethoxypyridin-3-yl)-5-propan-2-yloxyphenyl]methyl]piperazin-1-yl]benzamide]
0.0%	–	CCOc1cncc(-c2cc(OC)c(CN3CCN(c4ccc(C(=O)NCC56CC7CC(CC(C7)C5)C6)cc4)CC3)c(OC)c2)c1 [B1A060-01, N-(1-Adamantylmethyl)-4-[4-[[4-(5-ethoxypyridin-3-yl)-2,6-dimethoxyphenyl]methyl]piperazin-1-yl]benzamide]
5.3%	1.1%	CCOc1cccc(-c2cc(CN3CCN(c4ccc(C(=O)NCC56CC7CC(CC(C7)C5)C6)cc4)CC3)cc(C(F)(F)F)c2)c1 [B1A061-01, N-(1-Adamantylmethyl)-4-[4-[[3-(3-ethoxyphenyl)-5-(trifluoromethyl)phenyl]methyl]piperazin-1-yl]benzamide]
−0.3%	−9.7%	CCOc1cncc(-c2cc(CN3CCN(c4ccc(C(=O)NCC56CC7CC(CC(C7)C5)C6)cc4)CC3)cc(C(F)(F)F)c2)c1 [B1A062-01, N-(1-Adamantylmethyl)-4-[4-[[3-(5-ethoxypyridin-3-yl)-5-(trifluoromethyl)phenyl]methyl]piperazin-1-yl]benzamide]
3.6%	−7.8%	CCOc1cccc(-c2csc(CN3CCN(c4ccc(C(=O)NCC56CC7CC(CC(C7)C5)C6)cc4)CC3)c2)c1 [B1A067-01, N-(1-Adamantylmethyl)-4-[4-[[4-(3-ethoxyphenyl)thiophen-2-yl]methyl]piperazin-1-yl]benzamide]
−0.3%	−3.3%	CCOc1cccc(-c2ccccc2CN2CCN(c3ccc(C(=O)NCC45CC6CC(CC(C6)C4)C5)nn3)CC2)c1 [B1A071-01, N-(1-Adamantylmethyl)-6-[4-[[2-(3-ethoxyphenyl)phenyl]methyl]piperazin-1-yl]pyridazine-3-carboxamide]
